Results from patent US11685724B2, “Synthetic intermediates for novel cannabinoids and cannabinoid acids and their derivatives” (priority 2018, dated 2023).
Read-outs that look alike come from different tables or passages of the source.

Legend:
CB1 receptors = CB1 receptors (Homo sapiens, UniProt P21554); conditions: cited from earlier work
CB2 = CB2 (Homo sapiens, UniProt P34972); conditions: background statement with literature references; cited from earlier work
TRPV1 channels = test: Calcium assay of TRPV1 channel activity in HEK-TRPV1 cells; format: cell-based; conditions: Fluo-4 loaded, 1 mM external calcium chloride, 0-20 seconds baseline, compound added at 20 seconds, FIGS. 1A-1D
Method: Molecular Pharmacology, 2016, volume 90, pages 300-308) HEK 293 cells with TRPV1 channels have been used as model systems (P. Geppetti and M. Trevisani, Activation and sensitisation of the vanilloid receptor: role in gastrointestinal inflammation and function, British Journal of Pharmacology, 2004, volume 141, pages 1313-1320);
HEK TRexTRPV1 cultured in DMEM, 10% Fetal Bovine Serum, 2 mM L-glutamine, 10 microgramg/m1 Blasticidin (Calbiochem, San Diego Calif.), […] Zeocin (InvivoGen, San Diego Calif.), followed by inducing indicated transgene expression using 1 microgram/ml Tetracycline for 16-24 hrs. Comparisons made to untransfected HEK cells or HEKTRexTRPV1 with or without induction.
[…] Cells transferred to 96-well plates at 50,000 cells/well and stimulated as indicated. Calcium signals acquired using a Flexstation 3 (Molecular Devices, Sunnydale, USA). Data are analyzed according to the methods in I. Diaz-Franulic, J. Caceres-Molina, R. V. Sepulveda, F. Gonzalez-Nilo, R. Latorre, Structure-Driven Pharmacology of Transient Receptor Potential Channel Vanilloid 1, Molecular Pharmacology, 2016, volume 90, pages 300-8. […]

[1] = background statement with literature references

Sequence of CB1 receptors (P21554 whole entry): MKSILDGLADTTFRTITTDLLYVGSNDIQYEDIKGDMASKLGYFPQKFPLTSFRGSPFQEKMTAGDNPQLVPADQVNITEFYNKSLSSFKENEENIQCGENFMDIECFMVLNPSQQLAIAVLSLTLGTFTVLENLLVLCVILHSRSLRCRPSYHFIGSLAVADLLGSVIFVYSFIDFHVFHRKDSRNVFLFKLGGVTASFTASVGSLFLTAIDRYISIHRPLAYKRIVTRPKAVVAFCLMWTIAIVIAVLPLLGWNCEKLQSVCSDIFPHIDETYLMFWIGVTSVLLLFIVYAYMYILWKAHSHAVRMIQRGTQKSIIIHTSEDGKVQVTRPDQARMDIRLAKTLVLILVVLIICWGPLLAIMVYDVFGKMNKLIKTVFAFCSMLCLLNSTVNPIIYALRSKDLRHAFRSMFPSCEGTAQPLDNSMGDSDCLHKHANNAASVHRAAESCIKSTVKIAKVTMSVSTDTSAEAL
Sequence of CB2 (P34972 whole entry, species assumed): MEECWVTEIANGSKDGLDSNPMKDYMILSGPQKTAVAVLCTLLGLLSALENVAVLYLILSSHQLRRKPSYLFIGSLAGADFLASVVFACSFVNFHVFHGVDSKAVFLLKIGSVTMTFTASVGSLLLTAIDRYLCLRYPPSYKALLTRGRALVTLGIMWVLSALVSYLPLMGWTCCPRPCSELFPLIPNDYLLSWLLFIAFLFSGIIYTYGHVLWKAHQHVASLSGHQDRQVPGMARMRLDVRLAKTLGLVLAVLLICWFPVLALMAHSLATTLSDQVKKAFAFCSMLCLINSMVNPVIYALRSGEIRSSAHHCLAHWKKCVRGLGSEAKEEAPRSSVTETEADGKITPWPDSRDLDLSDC

Row | SMILES | CB1 receptor modulation (kind of action) (CB1 receptors; [1]) | CB2 receptor modulation (kind of action) (CB2) | CB1 receptor modulation (kind of action) (CB1 receptors) | biological finger print and dose response on TRPV1 channels (calcium signal), synthesized vs reference standard cannabidiol (TRPV1 channels)
1 | CCCc1cc(O)c2c(c1)OC(C)(C)[C@@H]1CCC(C)=C[C@@H]21 [tetrahydrocannabivarin (9), tetrahydrocannabivarin] | weak antagonist | modest agonists | – | –
2 | CCCCCc1cc(O)c2c(c1)OC(C)(C)c1ccc(C)cc1-2 [cannabinol (10), cannabinol] | – | modest agonists | weak agonist | –
3 | C=C(C)[C@@H]1CCC(C)=C[C@H]1c1c(O)cc(CCCCC)cc1O [cannabidiol (11, CBD), Cannabidiol] | do not interact significantly | do not interact significantly | – | same “biological finger print” and dose response
4 | C=C(C)[C@@H]1CCC(C)=C[C@H]1c1c(O)cc(CCC)cc1O [cannabidivarin (12), cannabidivarin] | do not interact significantly | do not interact significantly | – | –
